From ChEMBL document CHEMBL3864157, “The synthesis and antistaphylococcal activity of dehydroabietic acid derivatives: Modifications at C-12” (2016)
≈ marks a conversion by molar mass, not a printed value.

Tests used:
Assay type in all cases: functional
Staphylococcus aureus [1] = experiment: Antibacterial activity against Staphylococcus aureus Newman
Staphylococcus aureus [2] = experiment: Antibacterial activity against gentamicin-resistant Staphylococcus aureus NRS-108
Staphylococcus aureus [3] = experiment: Antibacterial activity against linezolid-resistant Staphylococcus aureus NRS-271
Staphylococcus aureus [4] = experiment: Antibacterial activity against aminoglycosides/tetracycline-resistant Staphylococcus aureus NRS-1
Staphylococcus aureus [5] = experiment: Antibacterial activity against erythromycin-resistant Staphylococcus aureus NRS-70
Staphylococcus aureus [6] = experiment: Antibacterial activity against oxacillin/tetracycline-resistant Staphylococcus aureus NRS-100

SMILES	MIC (Staphylococcus aureus [1])	MIC (Staphylococcus aureus [2])	MIC (Staphylococcus aureus [3])	MIC (Staphylococcus aureus [4])	MIC (Staphylococcus aureus [5])	MIC (Staphylococcus aureus [6])
CCCC(=NO)c1cc2c(cc1C(C)C)CC[C@H]1[C@](C)(C(=O)O)CCC[C@]21C	40 to 50 µg/mL (≈ 104 to 130 µM)					
C#CCO/N=C(\C)c1cc2c(cc1C(C)C)CC[C@H]1[C@](C)(C(=O)O)CCC[C@]21C	> 50 µg/mL					
C/C(=N\O)c1cc2c(cc1C(C)C)CC[C@H]1[C@](C)(C(=O)O)CCC[C@]21C	> 50 µg/mL					
CON=C(c1cccs1)c1cc2c(cc1C(C)C)CC[C@H]1[C@](C)(C(=O)O)CCC[C@]21C	6.25 to 12.5 µg/mL (≈ 14.2 to 28.4 µM)					
CO/N=C(/c1cc2c(cc1C(C)C)CC[C@H]1[C@](C)(C(=O)O)CCC[C@]21C)C(C)C	30 to 40 µg/mL (≈ 75.1 to 100 µM)					
C=CCON=C(CCC)c1cc2c(cc1C(C)C)CC[C@H]1[C@](C)(C(=O)O)CCC[C@]21C	10 to 12.5 µg/mL (≈ 23.5 to 29.4 µM)					
C#CCON=C(c1cccs1)c1cc2c(cc1C(C)C)CC[C@H]1[C@](C)(C(=O)O)CCC[C@]21C	1.56 to 3.13 µg/mL (≈ 3.36 to 6.75 µM)					
CCCC(=NOCc1ccccc1)c1cc2c(cc1C(C)C)CC[C@H]1[C@](C)(C(=O)O)CCC[C@]21C	> 50 µg/mL					
CN(C)[C@@H]1C(O)=C(C(N)=O)C(=O)[C@@]2(O)C(O)=C3C(=O)c4c(O)cccc4[C@@](C)(O)[C@H]3C[C@@H]12 [TETRACYCLINE]	< 0.2 µg/mL	< 0.2 µg/mL	< 0.2 µg/mL	> 25 µg/mL	< 0.2 µg/mL	< 0.2 µg/mL
C=CCON=C(c1cc2c(cc1C(C)C)CC[C@H]1[C@](C)(C(=O)O)CCC[C@]21C)C(C)C	10 to 12.5 µg/mL (≈ 23.5 to 29.4 µM)					
C=CCON=C(c1ccccc1)c1cc2c(cc1C(C)C)CC[C@H]1[C@](C)(C(=O)O)CCC[C@]21C	1.25 to 2.5 µg/mL (≈ 2.72 to 5.44 µM)	1.56 to 2.5 µg/mL (≈ 3.39 to 5.44 µM)	1.56 to 2.5 µg/mL (≈ 3.39 to 5.44 µM)	2.5 to 3.13 µg/mL (≈ 5.44 to 6.81 µM)	1.25 to 1.56 µg/mL (≈ 2.72 to 3.39 µM)	1.56 to 2.5 µg/mL (≈ 3.39 to 5.44 µM)
CC(C)c1cc2c(cc1C(=NO)c1ccccc1C(F)(F)F)[C@@]1(C)CCC[C@@](C)(C(=O)O)[C@@H]1CC2	1.56 to 3.13 µg/mL (≈ 3.2 to 6.42 µM)	1.56 to 3.13 µg/mL (≈ 3.2 to 6.42 µM)	1.56 to 3.13 µg/mL (≈ 3.2 to 6.42 µM)	1.56 to 3.13 µg/mL (≈ 3.2 to 6.42 µM)	1.56 to 3.13 µg/mL (≈ 3.2 to 6.42 µM)	1.56 to 3.13 µg/mL (≈ 3.2 to 6.42 µM)
C#CCON=C(c1cc2c(cc1C(C)C)CC[C@H]1[C@](C)(C(=O)O)CCC[C@]21C)C1CCCCC1	> 50 µg/mL					
CC(C)C(=NO)c1cc2c(cc1C(C)C)CC[C@H]1[C@](C)(C(=O)O)CCC[C@]21C	> 50 µg/mL					
C#CCON=C(c1ccc(C(F)(F)F)cc1)c1cc2c(cc1C(C)C)CC[C@H]1[C@](C)(C(=O)O)CCC[C@]21C	> 50 µg/mL					
CC(C)c1ccc2c(c1)CC[C@H]1[C@](C)(C(=O)O)CCC[C@]21C [DEHYDROABIETIC ACID]	12.5 to 20 µg/mL (≈ 41.6 to 66.6 µM)	12.5 to 25 µg/mL (≈ 41.6 to 83.2 µM)	12.5 to 25 µg/mL (≈ 41.6 to 83.2 µM)	12.5 to 25 µg/mL (≈ 41.6 to 83.2 µM)	12.5 to 25 µg/mL (≈ 41.6 to 83.2 µM)	12.5 to 25 µg/mL (≈ 41.6 to 83.2 µM)
CCC(=NO)c1cc2c(cc1C(C)C)CC[C@H]1[C@](C)(C(=O)O)CCC[C@]21C	> 50 µg/mL					
C=CCON=C(c1cc2c(cc1C(C)C)CC[C@H]1[C@](C)(C(=O)O)CCC[C@]21C)c1ccccc1C(F)(F)F	0.78 to 1.56 µg/mL (≈ 1.48 to 2.96 µM)	6.25 to 12.5 µg/mL (≈ 11.8 to 23.7 µM)	> 50 µg/mL	12.5 to 25 µg/mL (≈ 23.7 to 47.4 µM)	1.56 to 3.13 µg/mL (≈ 2.96 to 5.93 µM)	6.25 to 12.5 µg/mL (≈ 11.8 to 23.7 µM)
CON=C(c1ccccc1)c1cc2c(cc1C(C)C)CC[C@H]1[C@](C)(C(=O)O)CCC[C@]21C	5 µg/mL (≈ 11.5 µM)					
C=CCON=C(c1cccc(C(F)(F)F)c1)c1cc2c(cc1C(C)C)CC[C@H]1[C@](C)(C(=O)O)CCC[C@]21C	> 50 µg/mL					
C#CCON=C(c1cc2c(cc1C(C)C)CC[C@H]1[C@](C)(C(=O)O)CCC[C@]21C)c1ccccc1C(F)(F)F	1.56 to 3.13 µg/mL (≈ 2.97 to 5.95 µM)	> 25 µg/mL	> 25 µg/mL	> 25 µg/mL	> 25 µg/mL	> 25 µg/mL
C#CCON=C(CCC)c1cc2c(cc1C(C)C)CC[C@H]1[C@](C)(C(=O)O)CCC[C@]21C	15 to 20 µg/mL (≈ 35.4 to 47.2 µM)					
C#CCON=C(c1cccc(C(F)(F)F)c1)c1cc2c(cc1C(C)C)CC[C@H]1[C@](C)(C(=O)O)CCC[C@]21C	1.56 to 3.13 µg/mL (≈ 2.97 to 5.95 µM)	> 25 µg/mL	> 25 µg/mL	> 25 µg/mL	> 25 µg/mL	> 25 µg/mL
CON=C(c1ccc(Cl)cc1Cl)c1cc2c(cc1C(C)C)CC[C@H]1[C@](C)(C(=O)O)CCC[C@]21C	1.56 to 3.13 µg/mL (≈ 3.1 to 6.23 µM)	> 25 µg/mL	> 25 µg/mL	> 25 µg/mL	1.56 to 3.13 µg/mL (≈ 3.1 to 6.23 µM)	> 25 µg/mL

SMILES	MIC (Staphylococcus aureus [1])	MIC (Staphylococcus aureus [2])	MIC (Staphylococcus aureus [3])	MIC (Staphylococcus aureus [4])	MIC (Staphylococcus aureus [5])	MIC (Staphylococcus aureus [6])
C#CCON=C(CC)c1cc2c(cc1C(C)C)CC[C@H]1[C@](C)(C(=O)O)CCC[C@]21C	20 to 25 µg/mL (≈ 48.8 to 61 µM)					
C#CCON=C(c1cc2c(cc1C(C)C)CC[C@H]1[C@](C)(C(=O)O)CCC[C@]21C)C(C)C	10 to 12.5 µg/mL (≈ 23.6 to 29.5 µM)					
CON=C(c1cccc(C(F)(F)F)c1)c1cc2c(cc1C(C)C)CC[C@H]1[C@](C)(C(=O)O)CCC[C@]21C	1.56 to 3.13 µg/mL (≈ 3.11 to 6.24 µM)	> 25 µg/mL	> 25 µg/mL	> 25 µg/mL	> 25 µg/mL	> 25 µg/mL
CC(C)C(=NOCc1ccccc1)c1cc2c(cc1C(C)C)CC[C@H]1[C@](C)(C(=O)O)CCC[C@]21C	> 50 µg/mL					
C=CCON=C(c1ccc(C(F)(F)F)cc1)c1cc2c(cc1C(C)C)CC[C@H]1[C@](C)(C(=O)O)CCC[C@]21C	> 50 µg/mL					
C=CCO/N=C(\C)c1cc2c(cc1C(C)C)CC[C@H]1[C@](C)(C(=O)O)CCC[C@]21C	30 to 40 µg/mL (≈ 75.5 to 101 µM)					
CCC(=NOCc1ccccc1)c1cc2c(cc1C(C)C)CC[C@H]1[C@](C)(C(=O)O)CCC[C@]21C	> 50 µg/mL					
CCCC(=NOC)c1cc2c(cc1C(C)C)CC[C@H]1[C@](C)(C(=O)O)CCC[C@]21C	40 to 50 µg/mL (≈ 100 to 125 µM)					
C=CCON=C(c1ccc(Cl)cc1Cl)c1cc2c(cc1C(C)C)CC[C@H]1[C@](C)(C(=O)O)CCC[C@]21C	1.56 to 3.13 µg/mL (≈ 2.95 to 5.92 µM)	12.5 µg/mL (≈ 23.7 µM)	> 25 µg/mL	> 25 µg/mL	1.56 to 3.13 µg/mL (≈ 2.95 to 5.92 µM)	12.5 to 25 µg/mL (≈ 23.7 to 47.3 µM)
CCC(=NOC)c1cc2c(cc1C(C)C)CC[C@H]1[C@](C)(C(=O)O)CCC[C@]21C	> 50 µg/mL					
CC(C)c1cc2c(cc1C(=NO)c1ccccc1)[C@@]1(C)CCC[C@@](C)(C(=O)O)[C@@H]1CC2	10 to 12.5 µg/mL (≈ 23.8 to 29.8 µM)					
C=CCON=C(c1cc2c(cc1C(C)C)CC[C@H]1[C@](C)(C(=O)O)CCC[C@]21C)C1CCCCC1	12.5 to 25 µg/mL (≈ 26.8 to 53.7 µM)					
C=CCON=C(c1cccs1)c1cc2c(cc1C(C)C)CC[C@H]1[C@](C)(C(=O)O)CCC[C@]21C	25 to 50 µg/mL (≈ 53.7 to 107 µM)					
C=CCON=C(CC)c1cc2c(cc1C(C)C)CC[C@H]1[C@](C)(C(=O)O)CCC[C@]21C	> 50 µg/mL					
CN[C@H](CC(C)C)C(=O)N[C@H]1C(=O)N[C@@H](CC(N)=O)C(=O)N[C@H]2C(=O)N[C@H]3C(=O)N[C@H](C(=O)N[C@H](C(=O)O)c4cc(O)cc(O)c4-c4cc3ccc4O)[C@H](O)c3ccc(c(Cl)c3)Oc3cc2cc(c3O[C@@H]2O[C@H](CO)[C@@H](O)[C@H](O)[C@H]2O[C@H]2C[C@](C)(N)[C@H](O)[C@H](C)O2)Oc2ccc(cc2Cl)[C@H]1O [VANCOMYCIN]	0.78 to 1.56 µg/mL (≈ 0.538 to 1.08 µM)	0.39 to 0.78 µg/mL (≈ 0.269 to 0.538 µM)	0.39 to 0.78 µg/mL (≈ 0.269 to 0.538 µM)	1.56 to 3.13 µg/mL (≈ 1.08 to 2.16 µM)	0.2 to 0.39 µg/mL (≈ 0.138 to 0.269 µM)	0.39 to 0.78 µg/mL (≈ 0.269 to 0.538 µM)
CC(C)c1cc2c(cc1C(=NO)c1cccc(C(F)(F)F)c1)[C@@]1(C)CCC[C@@](C)(C(=O)O)[C@@H]1CC2	1.56 to 3.13 µg/mL (≈ 3.2 to 6.42 µM)	3.13 to 6.25 µg/mL (≈ 6.42 to 12.8 µM)	3.13 to 6.25 µg/mL (≈ 6.42 to 12.8 µM)	3.13 to 6.25 µg/mL (≈ 6.42 to 12.8 µM)	1.56 to 3.13 µg/mL (≈ 3.2 to 6.42 µM)	3.13 to 6.25 µg/mL (≈ 6.42 to 12.8 µM)
C/C(=N\OCc1ccccc1)c1cc2c(cc1C(C)C)CC[C@H]1[C@](C)(C(=O)O)CCC[C@]21C	> 50 µg/mL					
CC(C)c1cc2c(cc1C(=NO)c1cccs1)[C@@]1(C)CCC[C@@](C)(C(=O)O)[C@@H]1CC2	6.25 to 12.5 µg/mL (≈ 14.7 to 29.4 µM)					
CON=C(c1cc2c(cc1C(C)C)CC[C@H]1[C@](C)(C(=O)O)CCC[C@]21C)c1ccccc1C(F)(F)F	0.39 to 0.78 µg/mL (≈ 0.778 to 1.56 µM)	6.25 to 12.5 µg/mL (≈ 12.5 to 24.9 µM)	1.56 to 3.13 µg/mL (≈ 3.11 to 6.24 µM)	3.13 to 6.25 µg/mL (≈ 6.24 to 12.5 µM)	1.56 to 3.13 µg/mL (≈ 3.11 to 6.24 µM)	3.13 to 6.25 µg/mL (≈ 6.24 to 12.5 µM)
CC(C)c1cc2c(cc1C(=NO)C1CCCCC1)[C@@]1(C)CCC[C@@](C)(C(=O)O)[C@@H]1CC2	12.5 to 25 µg/mL (≈ 29.4 to 58.7 µM)					
CON=C(c1ccc(C(F)(F)F)cc1)c1cc2c(cc1C(C)C)CC[C@H]1[C@](C)(C(=O)O)CCC[C@]21C	> 50 µg/mL					
CC(C)c1cc2c(cc1C(=NO)c1ccc(C(F)(F)F)cc1)[C@@]1(C)CCC[C@@](C)(C(=O)O)[C@@H]1CC2	> 50 µg/mL					
CC(C)c1cc2c(cc1C(=NOCc1ccccc1)c1ccccc1)[C@@]1(C)CCC[C@@](C)(C(=O)O)[C@@H]1CC2	> 50 µg/mL					
CON=C(c1cc2c(cc1C(C)C)CC[C@H]1[C@](C)(C(=O)O)CCC[C@]21C)C1CCCCC1	> 50 µg/mL					
